Results from patent publication US12110295B2, “WD40 repeat domain protein 5 (WDR5) degradation/disruption compounds and methods of use” (Icahn School of Medicine at Mount Sinai, priority 2018, dated 2024).

target: WDR5 (Homo sapiens, UniProt P61964); assay: Screening of putative WDR5 degraders by Western blot in MV4;11 and/or MIAPACA2 cells; type: cell-based; parameters: After WDR5 degrader treatment, cells were collected and lysed; endogenous in cells; host or cells: MV4;11 and/or MIAPACA2; details: summary of screening, FIGS. 6-10
Experimental: MV4;11 cells were treated with DMSO or indicated compounds at 0.1 μM and 0.5 μM for 18 hours. […]. MIAPACA2 cells were treated with DMSO or indicated compounds at 0.5 μM and 1.0 μM for 18 hours.
MIAPACA2 cells were treated with DMSO or indicated compounds at 0.1 μM and 0.5 μM for 18 hours.
MIAPACA2 cells were treated with DMSO or indicated compounds at 0.5 μM and 1.0 μM or at 1.0 μM and 10 μM for 18 hours.
MV4;11 cells were treated with DMSO or indicated compounds at 0.1 μM and 1.0 μM for 18 hours.
WDR5 degraders were dissolved in DMSO and DMSO with no degraders was used as the control. 1×10^6 MV4;11 cells or 1×10^5 MIAPACA2 or 2×10^5 Hela cells were seeded in 2 mL medium for each well in […].
For prescreening of all the compounds, each test compound was added to the medium at indicated concentrations. After 18 h treatment, cells were collected.
After WDR5 degrader treatment, cells were collected and lysed. Total cell lysates were used for western blot. The following primary antibodies were used: WDR5 (Santa Cruz), vinculin (Cell Signaling Technology), tubulin (Cell Signaling Technology), GAPDH (Santa Cruz). Blots were imaged using fluorescence-labeled secondary antibodies on ChemiDoc™ Imaging Systems.

| SMILES | effective degradation of WDR5 in MV4;11 and/or MIAPACA2 cells |
| --- | --- |
| Cc1ncsc1-c1ccc(CNC(=O)[C@@H]2C[C@@H](O)CN2C(=O)[C@@H](NC(=O)COCC(=O)N2CCN(c3ncc(-c4cc(NC(=O)c5ccc(F)cc5C(F)(F)F)c(N5C[C@@H](C)N(C)[C@@H](C)C5)cc4F)cn3)CC2)C(C)(C)C)cc1 [XF078-99, (2S,4R)-1-((S)-2-(2-(2-(4-(5-(2-fluoro-5-(4-fluoro-2-(trifluoromethyl)benzamido)-4-((3S,5R)-3,4,5-trimethylpiperazin-1-yl)phenyl)pyrimidin-2-yl)piperazin-1-yl)-2-oxoethoxy)acetamido)-3,3-dimethylbutanoyl)-4-hydroxy-N-(4-(4-methylthiazol-5-yl)benzyl)pyrrolidine-2-carboxamide] | able to effectively degrade WDR5 |
| Cc1ncsc1-c1ccc(CNC(=O)[C@@H]2C[C@@H](O)CN2C(=O)[C@@H](NC(=O)COCCOCCOCCOCCOCC(=O)N2CCN(c3ncc(-c4cc(NC(=O)c5ccc(F)cc5C(F)(F)F)c(N5C[C@@H](C)N(C)[C@@H](C)C5)cc4F)cn3)CC2)C(C)(C)C)cc1 [XF078-106, (2S,4R)-1-((S)-2-(tert-butyl)-20-(4-(5-(2-fluoro-5-(4-fluoro-2-(trifluoromethyl)benzamido)-4-((3S,5R)-3,4,5-trimethylpiperazin-1-yl)phenyl)pyrimidin-2-yl)piperazin-1-yl)-4,20-dioxo-6,9,12,15,18-pentaoxa-3-azaicosanoyl)-4-hydroxy-N-(4-(4-methylthiazol-5-yl)benzyl)pyrrolidine-2-carboxamide] | able to effectively degrade WDR5 |
| Cc1ncsc1-c1ccc(CNC(=O)[C@@H]2C[C@@H](O)CN2C(=O)[C@@H](NC(=O)CCCCCCC(=O)N2CC=C(c3cc(NC(=O)c4c[nH]c(=O)cc4C(F)(F)F)c(N4C[C@@H](C)N(C)[C@@H](C)C4)cc3F)CC2)C(C)(C)C)cc1 [XF078-43, N-(4-fluoro-5-(1-(8-(((S)-1-((2S,4R)-4-hydroxy-2-((4-(4-methylthiazol-5-yl)benzyl)carbamoyl)pyrrolidin-1-yl)-3,3-dimethyl-1-oxobutan-2-yl)amino)-8-oxooctanoyl)-1,2,3,6-tetrahydropyridin-4-yl)-2-((3S,5R)-3,4,5-trimethylpiperazin-1-yl)phenyl)-6-oxo-4-(trifluoromethyl)-1,6-dihydropyridine-3-carboxamide] | able to effectively degrade WDR5 |
| Cc1ncsc1-c1ccc(CNC(=O)[C@@H]2C[C@@H](O)CN2C(=O)[C@@H](NC(=O)COCCOCC(=O)N2CCN(c3ncc(-c4cc(NC(=O)c5ccc(F)cc5C(F)(F)F)c(N5C[C@@H](C)N(C)[C@@H](C)C5)cc4F)cn3)CC2)C(C)(C)C)cc1 [XF078-101, (2S,4R)-1-((S)-2-(2-(2-(2-(4-(5-(2-fluoro-5-(4-fluoro-2-(trifluoromethyl)benzamido)-4-((3S,5R)-3,4,5-trimethylpiperazin-1-yl)phenyl)pyrimidin-2-yl)piperazin-1-yl)-2-oxoethoxy)ethoxy)acetamido)-3,3-dimethylbutanoyl)-4-hydroxy-N-(4-(4-methylthiazol-5-yl)benzyl)pyrrolidine-2-carboxamide] | able to effectively degrade WDR5 |
| Cc1ncsc1-c1ccc(CNC(=O)[C@@H]2C[C@@H](O)CN2C(=O)[C@@H](NC(=O)CCCCCC(=O)N2CCN(c3ncc(-c4cc(NC(=O)c5ccc(F)cc5C(F)(F)F)c(N5C[C@@H](C)N(C)[C@@H](C)C5)cc4F)cn3)CC2)C(C)(C)C)cc1 [XF078-111, (2S,4R)-1-((S)-2-(7-(4-(5-(2-fluoro-5-(4-fluoro-2-(trifluoromethyl)benzamido)-4-((3S,5R)-3,4,5-trimethylpiperazin-1-yl)phenyl)pyrimidin-2-yl)piperazin-1-yl)-7-oxoheptanamido)-3,3-dimethylbutanoyl)-4-hydroxy-N-(4-(4-methylthiazol-5-yl)benzyl)pyrrolidine-2-carboxamide] | able to effectively degrade WDR5 |

Further lines, results first:

| effective degradation of WDR5 in MV4;11 and/or MIAPACA2 cells | SMILES |
| --- | --- |
| able to effectively degrade WDR5 | C[C@@H]1CN(c2cc(F)c(C3=CCN(c4ncc(CN5CCN(C(=O)CCOCCOCCOCCNc6cccc7c6C(=O)N(C6CCC(=O)NC6=O)C7=O)CC5)cn4)CC3)cc2NC(=O)c2c[nH]c(=O)cc2C(F)(F)F)C[C@H](C)N1C (stereo partly drawn) [XF078-158, N-(5-(1-(5-((4-(3-(2-(2-(2-((2-(2,6-dioxopiperidin-3-yl)-1,3-dioxoisoindolin-4-yl)amino)ethoxy)ethoxy)ethoxy)propanoyl)piperazin-1-yl)methyl)pyrimidin-2-yl)-1,2,3,6-tetrahydropyridin-4-yl)-4-fluoro-2-((3S,5R)-3,4,5-trimethylpiperazin-1-yl)phenyl)-6-oxo-4-(trifluoromethyl)-1,6-dihydropyridine-3-carboxamide] |
| able to effectively degrade WDR5 | Cc1ncsc1-c1ccc(CNC(=O)[C@@H]2C[C@@H](O)CN2C(=O)[C@@H](NC(=O)CCCCCCCNC(=O)c2ccc(-c3ccc(N4C[C@@H](C)N(C)[C@@H](C)C4)c(NC(=O)c4c[nH]c(=O)cc4C(F)(F)F)c3)c(F)c2)C(C)(C)C)cc1 [XF056-171, N-(2′-fluoro-4′-((8-(((S)-1-((2S,4R)-4-hydroxy-2-((4-(4-methylthiazol-5-yl)benzyl)carbamoyl)pyrrolidin-1-yl)-3,3-dimethyl-1-oxobutan-2-yl)amino)-8-oxooctyl)carbamoyl)-4-((3R,5S)-3,4,5-trimethylpiperazin-1-yl)-[1,1′-biphenyl]-3-yl)-6-oxo-4-(trifluoromethyl)-1,6-dihydropyridine-3-carboxamide] |
| able to effectively degrade WDR5 | Cc1ncsc1-c1ccc(CNC(=O)[C@@H]2C[C@@H](O)CN2C(=O)[C@@H](NC(=O)CCOCCOCCOCCC(=O)N2CCN(Cc3cnc(N4CC=C(c5cc(NC(=O)c6c[nH]c(=O)cc6C(F)(F)F)c(N6C[C@@H](C)N(C)[C@@H](C)C6)cc5F)CC4)nc3)CC2)C(C)(C)C)cc1 [XF078-137, N-(4-fluoro-5-(1-(5-((4-((S)-15-((2S,4R)-4-hydroxy-2-((4-(4-methylthiazol-5-yl)benzyl)carbamoyl)pyrrolidine-1-carbonyl)-16,16-dimethyl-13-oxo-4,7,10-trioxa-14-azaheptadecanoyl)piperazin-1-yl)methyl)pyrimidin-2-yl)-1,2,3,6-tetrahydropyridin-4-yl)-2-((3S,5R)-3,4,5-trimethylpiperazin-1-yl)phenyl)-6-oxo-4-(trifluoromethyl)-1,6-dihydropyridine-3-carboxamide] |
| able to effectively degrade WDR5 | C[C@@H]1CN(c2ccc(-c3cc(CN4CCN(CCNC(=O)CCOCCNc5cccc6c5C(=O)N(C5CCC(=O)NC5=O)C6=O)CC4)ccc3F)cc2NC(=O)c2c[nH]c(=O)cc2C(F)(F)F)C[C@H](C)N1C (stereo partly drawn) [XF078-25, N-(5′-((4-(2-(3-(2-((2-(2,6-dioxopiperidin-3-yl)-1,3-dioxoisoindolin-4-yl)amino)ethoxy)propanamido)ethyl)piperazin-1-yl)methyl)-2′-fluoro-4-((3S,5R)-3,4,5-trimethylpiperazin-1-yl)-[1,1′-biphenyl]-3-yl)-6-oxo-4-(trifluoromethyl)-1,6-dihydropyridine-3-carboxamide] |
| able to effectively degrade WDR5 | Cc1ncsc1-c1ccc(CNC(=O)[C@@H]2C[C@@H](O)CN2C(=O)[C@@H](NC(=O)CCCCCC(=O)NCCN2CCN(Cc3ccc(F)c(-c4ccc(N5C[C@@H](C)N(C)[C@@H](C)C5)c(NC(=O)c5c[nH]c(=O)cc5C(F)(F)F)c4)c3)CC2)C(C)(C)C)cc1 [XF078-13, N^1-(2-(4-((6-fluoro-3′-(6-oxo-4-(trifluoromethyl)-1,6-dihydropyridine-3-carboxamido)-4′-((3S,5R)-3,4,5-trimethylpiperazin-1-yl)-[1,1′-biphenyl]-3-yl)methyl)piperazin-1-yl)ethyl)-N^7-((S)-1-((2S,4R)-4-hydroxy-2-((4-(4-methylthiazol-5-yl)benzyl)carbamoyl)pyrrolidin-1-yl)-3,3-dimethyl-1-oxobutan-2-yl)heptanediamide] |
| able to effectively degrade WDR5 | C[C@@H]1CN(c2cc(F)c(C3=CCN(c4ncc(CN5CCN(C(=O)CCOCCOCCNc6cccc7c6C(=O)N(C6CCC(=O)NC6=O)C7=O)CC5)cn4)CC3)cc2NC(=O)c2c[nH]c(=O)cc2C(F)(F)F)C[C@H](C)N1C (stereo partly drawn) [XF078-157, N-(5-(1-(5-((4-(3-(2-(2-((2-(2,6-dioxopiperidin-3-yl)-1,3-dioxoisoindolin-4-yl)amino)ethoxy)ethoxy)propanoyl)piperazin-1-yl)methyl)pyrimidin-2-yl)-1,2,3,6-tetrahydropyridin-4-yl)-4-fluoro-2-((3S,5R)-3,4,5-trimethylpiperazin-1-yl)phenyl)-6-oxo-4-(trifluoromethyl)-1,6-dihydropyridine-3-carboxamide] |
